Source: patent publication US4346087A, “Antibacterial surface active agent containing azaalkenelactam” (priority 1979, dated 1982)
≈ marks a conversion by molar mass, not a printed value. Read-outs that look alike come from different tables or passages of the source.

Experiments:
[1] = tested on: Staphylococcus epidermidis; assay: MIC against Staphylococcus epidermidis; type: cell-based; settings: Staphylococcus epidermidis
Source text: (§1) Below are described the antibacterial activities of the compounds in the compositions according to this invention. The results of antibacterial activity tests on the N-alkyl-substituted azaalkenelactams and their derivatives having a carboxylate radical of Examples 1 to 70 were as shown in Tables 1 to 3.
(§2) The testing method complied with the standard method of Japan Sociaty of Chemotherapy.

[2] = tested on: Staphylococcus aureus FDA 209P; assay: MIC against Staphylococcus aureus FDA 209P; type: cell-based; settings: Staphylococcus aureus, FDA209P
Source text: (§3) Below are described the antibacterial activities of the compounds in the compositions according to this invention.
as §2

[3] = tested on: Pseudomonas aruginosa IFO 3443; assay: MIC against Pseudomonas aeruginosa; type: cell-based; settings: Pseudomonas
Source text: as §1, §2

[4] = tested on: Bacillus subtilis ATCC 6633; assay: MIC against Bacillus subtilis ATCC 6633; type: cell-based; settings: Bacillus subtilis
Source text: as §1, §2

[5] = tested on: Salmonella typhinurium; assay: microbe, parasite or virus in culture; type: cell-based, Salmonella typhimurium
Source text: as §1, §2

[6] = tested on: Desulfovibrio desulfuricans IFO 13699; assay: MIC against Desulfovibrio desulfuricans; type: cell-based; settings: Desulfovibrio desulfuricans
Source text: as §3, §2

[7] = tested on: Streptococcus faecalis; assay: MIC against Streptococcus faecalis; type: cell-based; settings: Enterococcus faecalis
Source text: as §1, §2

[8] = tested on: Pasteurella multocida; assay: MIC against Pasteurella multocida; type: cell-based; settings: Pasteurella multocida
Source text: as §1, §2

[9] = tested on: Escherichia coli NIHJ; assay: MIC against Escherichia coli NIHJ; type: cell-based; settings: Escherichia coli
Source text: as §3, §2

[10] = Table 3, heart infusion agar, 37° C., 24 hours, read-out: MIC
[11] = Table 1, azaalkenelactams, heart infusion agar, 37° C., 24 hours, read-out: MIC
[12] = IFO3443, Table 3, heart infusion agar, 37° C., 24 hours, read-out: MIC
[13] = ATCC6633, Table 3, heart infusion agar, 37° C., 24 hours, read-out: MIC
[14] = IFO13699, Table 1, azaalkenelactams, heart infusion agar, 37° C., 24 hours, read-out: MIC

SMILES	MIC [1, 10] [µg/mL]	MIC ([2]; 24 h) [µg/mL]	MIC ([3]; IFO3443, 24 h) [µg/mL]	MIC ([4]; ATCC6633, 24 h) [µg/mL]	MIC [5, 10] [µg/mL]	MIC ([6]; IFO13699, 24 h) [µg/mL]	MIC ([7]; 24 h) [µg/mL]	MIC [8, 10] [µg/mL]	MIC ([9]; 24 h) [µg/mL]	MIC [2, 11] [µg/mL]	MIC [3, 12] [µg/mL]	MIC [4, 13] [µg/mL]	MIC [6, 14] [µg/mL]	MIC [7, 10] [µg/mL]	MIC ([8]; 24 h) [µg/mL]	MIC [9, 11] [µg/mL]	MIC ([1]; 24 h) [µg/mL]	MIC ([5]; 24 h) [µg/mL]	MIC ([2]; Table 2, derivatives having a carboxylate radical, heart infusion agar, 37° C., 24 hours, read-out: MIC) [µg/mL]	MIC ([6]; IFO13699, Table 2, derivatives having a carboxylate radical, heart infusion agar, 37° C., 24 hours, read-out: MIC) [µg/mL]
CCCCCCCCCCCCCCC(O)CNCCN1CCN=CCCC1=O (stereo not drawn) [Example 54, 4-(2-hydroxyhexadecyl)aminoethyl-2,3,6,7-tetrahydro-1,4-diazocin-5-one]	1.56 (≈ 3.81 µM)	6.25 (≈ 15.3 µM)	200 (≈ 488 µM)	3.12 (≈ 7.62 µM)	3.12 (≈ 7.62 µM)	6.25 (≈ 15.3 µM)	6.25 (≈ 15.3 µM)	< 1.56	6.25 (≈ 15.3 µM)	–	–	–	–	–	–	–	–	–	–	–
CCCCCCCCCCCCNCCN1CCN=C(C)CC1=O [Example 2, 4-dodecylaminoethyl-7-methyl-3,6-dihydro-2H-1,4-diazepin-5-one]	1.56 (≈ 4.62 µM)	–	–	–	3.12 (≈ 9.24 µM)	–	–	–	–	12.5 (≈ 37 µM)	100 (≈ 296 µM)	12.5 (≈ 37 µM)	12.5 (≈ 37 µM)	12.5 (≈ 37 µM)	< 1.56	25 (≈ 74.1 µM)	–	–	–	–
CCCCCCCCCCCCCCNCCN1CCCN=CC(C)(C)C1=O [Example 60, 1-tetradecylaminoethyl-3,3-dimethyl-6,7,8-trihydro-1,5-diazocin-5-one]	1.56 (≈ 3.96 µM)	6.25 (≈ 15.9 µM)	100 (≈ 254 µM)	3.12 (≈ 7.93 µM)	3.12 (≈ 7.93 µM)	6.25 (≈ 15.9 µM)	6.25 (≈ 15.9 µM)	< 1.56	12.5 (≈ 31.8 µM)	–	–	–	–	–	–	–	–	–	–	–
CCCCCCCCCCCC(=O)NCCN1CCN=C(C)CC1=O [Example 9, 4-lauramidoethyl-7-methyl-3,6-dihydro-2H-1,4-diazepin-5-one]	–	12.5 (≈ 35.6 µM)	100 (≈ 284 µM)	25 (≈ 71.1 µM)	–	6.25 (≈ 17.8 µM)	12.5 (≈ 35.6 µM)	3.12 (≈ 8.88 µM)	25 (≈ 71.1 µM)	–	–	–	–	–	–	–	6.25 (≈ 17.8 µM)	6.25 (≈ 17.8 µM)	–	–
CCCCCCCCCCCCCCC(O)CNCCN1CCCN=CC(C)(C)C1=O (stereo not drawn) [Example 61, 1-(2-hydroxyhexadecyl)aminoethyl-3,3-dimethyl-6,7,8-trihydro-1,5-diazocin-5-one]	1.56 (≈ 3.56 µM)	6.25 (≈ 14.3 µM)	200 (≈ 457 µM)	3.12 (≈ 7.13 µM)	3.12 (≈ 7.13 µM)	6.25 (≈ 14.3 µM)	6.25 (≈ 14.3 µM)	< 1.56	25 (≈ 57.1 µM)	–	–	–	–	–	–	–	–	–	–	–
CCCCCCCCCCCCCCNCCN1CCN=CCC(C)C1=O (stereo not drawn) [Example 65, 4-tetradecylaminoethyl-6-methyl-2,3,6,7-tetrahydro-1,4-diazocin-5-one]	1.56 (≈ 4.11 µM)	–	100 (≈ 263 µM)	3.12 (≈ 8.22 µM)	3.12 (≈ 8.22 µM)	6.25 (≈ 16.5 µM)	6.25 (≈ 16.5 µM)	< 1.56	12.5 (≈ 32.9 µM)	3.12 (≈ 8.22 µM)	–	–	–	–	–	–	–	–	–	–
CCCCCCCCCCCCCCC(O)CNCCN1CCN=CC(C)(C)C1=O (stereo not drawn) [Example 59, 4-(2-hydroxyhexadecyl)aminoethyl-6,6-dimethyl-3-hydro-2H-1,4-diazepin-5-one]	1.56 (≈ 3.68 µM)	–	–	3.12 (≈ 7.36 µM)	3.12 (≈ 7.36 µM)	–	–	< 1.56	–	6.25 (≈ 14.8 µM)	100 (≈ 236 µM)	–	3.12 (≈ 7.36 µM)	6.25 (≈ 14.8 µM)	–	25 (≈ 59 µM)	–	–	–	–
CCCCCCCCCCCCCCNCCN1CCN=CCCC1=O [Example 53, 4-tetradecylaminoethyl-2,3,6,7-tetrahydro-1,4-diazocin-5-one]	1.56 (≈ 4.27 µM)	–	100 (≈ 274 µM)	3.12 (≈ 8.53 µM)	3.12 (≈ 8.53 µM)	–	6.25 (≈ 17.1 µM)	< 1.56	6.25 (≈ 17.1 µM)	1.56 (≈ 4.27 µM)	–	–	3.12 (≈ 8.53 µM)	–	–	–	–	–	–	–
CCCCCCCCCCCCCCNCCN1CCN=CC(C)(C)C1=O [Example 58, 4-tetradecylaminoethyl-6,6-dimethyl-3-hydro-2H-1,4-diazepin-5-one]	–	–	50 (≈ 132 µM)	–	1.56 (≈ 4.11 µM)	–	–	–	6.25 (≈ 16.5 µM)	3.12 (≈ 8.22 µM)	–	3.12 (≈ 8.22 µM)	3.12 (≈ 8.22 µM)	3.12 (≈ 8.22 µM)	< 1.56	–	< 1.56	–	–	–
CCCCCCCCCCCCCCNCCN1CCN=CC(C)C1=O (stereo not drawn) [Example 40, 4-tetradecylaminoethyl-6-methyl-3,6-dihydro-2H-1,4-diazepin-5-one]	< 1.56	–	50 (≈ 137 µM)	3.12 (≈ 8.53 µM)	3.12 (≈ 8.53 µM)	–	3.12 (≈ 8.53 µM)	< 1.56	6.25 (≈ 17.1 µM)	1.56 (≈ 4.27 µM)	–	–	1.56 (≈ 4.27 µM)	–	–	–	–	–	–	–
CCCCCCCCCCCCCCC(O)CNCCN1CCN=C(C)CC1=O (stereo not drawn) [Example 29, 4-(2-hydroxyhexadecyl)aminoethyl-7-methyl-3,6-dihydro-2H-1,4-diazepin-5-one]	1.56 (≈ 3.81 µM)	–	–	3.12 (≈ 7.62 µM)	3.12 (≈ 7.62 µM)	–	–	< 1.56	–	6.25 (≈ 15.3 µM)	100 (≈ 244 µM)	–	3.12 (≈ 7.62 µM)	6.25 (≈ 15.3 µM)	–	25 (≈ 61 µM)	–	–	–	–
CCCCCCCCCCCC(=O)NCCN1CC[N+](CC(=O)[O-])=C(C)CC1=O [4-lauramidoethyl-7-methyl-1-azonia-4-azacyclohept-7-en-5-one-1-acetate]	–	50 (≈ 122 µM)	200 (≈ 488 µM)	50 (≈ 122 µM)	–	12.5 (≈ 30.5 µM)	12.5 (≈ 30.5 µM)	< 1.56	100 (≈ 244 µM)	–	–	–	–	–	–	–	12.5 (≈ 30.5 µM)	6.25 (≈ 15.3 µM)	–	–
CCCCCCCCCCCCNCCNCCN1CCN=C(C)CC1=O [Example 34, 4-dodecylaminoethylaminoethyl-7-methyl-3,6-dihydro-2H-1,4-diazepin-5-one]	< 1.56	–	100 (≈ 263 µM)	3.12 (≈ 8.2 µM)	3.12 (≈ 8.2 µM)	–	6.25 (≈ 16.4 µM)	< 1.56	25 (≈ 65.7 µM)	3.12 (≈ 8.2 µM)	–	–	3.12 (≈ 8.2 µM)	–	–	–	–	–	–	–
CCCCCCCCCCCCCCNCCN1CC[N+](CC(=O)[O-])=C(C)CC1=O [4-tetradecylaminoethyl-7-methyl-1-azonia-4-azacyclohept-7-en-5-one-1-acetate]	3.12 (≈ 7.36 µM)	–	100 (≈ 236 µM)	12.5 (≈ 29.5 µM)	–	–	6.25 (≈ 14.8 µM)	3.12 (≈ 7.36 µM)	100 (≈ 236 µM)	–	–	–	–	–	–	–	–	6.25 (≈ 14.8 µM)	3.12 (≈ 7.36 µM)	3.12 (≈ 7.36 µM)
CCCCCCCCCCCCCCNCCN1CCCN=CC(C)C1=O (stereo not drawn) [Example 48, 1-tetradecylaminoethyl-3-methyl-3,6,7,8-tetrahydro-1,5-diazocin-2-one]	1.56 (≈ 4.11 µM)	–	50 (≈ 132 µM)	6.25 (≈ 16.5 µM)	3.12 (≈ 8.22 µM)	–	6.25 (≈ 16.5 µM)	< 1.56	12.5 (≈ 32.9 µM)	3.12 (≈ 8.22 µM)	–	–	3.12 (≈ 8.22 µM)	–	–	–	–	–	–	–
